Reference: PubChem BioAssay (NCI)
Several values for one entry are separate records, joined by “and”; a condition that tells them apart may be missing. Equal values may be shown once.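 Five concentrations, 48 hours, 96-well plates. GI50 marks 50% less growth. TGI denotes the concentration required for complete inhibition of growth.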

Key:
Assay in all cases: NCI anticancer screen, dose series, 48 h
[1] = system: A549 NSCLC
[2] = system: HCC-2998 colon
[3] = system: HCT-116 colon
[4] = system: HOP-92 NSCLC
[5] = system: MALME-3M melanoma
[6] = system: NCI-H226 lung
[7] = system: OVCAR-3 ovarian
[8] = system: SF-295 CNS
[9] = system: UACC-62 melanoma

Structure (SMILES)	GI50 [1] [µM]	TGI [1] [µM]	GI50 [2] [µM]	TGI [2]	GI50 [3]	TGI [3]	GI50 [4]	TGI [4]	GI50 [5] [µM]	TGI [5] [µM]	GI50 [6] [µM]	TGI [6] [µM]	GI50 [7]	TGI [7]	GI50 [8] [µM]	TGI [8] [µM]	GI50 [9]	TGI [9]
O=C1Cc2cc(CCn3ccnc3)c(Cl)cc2N1	7.63	> 100	32.2	> 100 µM	13.1 µM	> 100 µM	3.54 µM	91.5 µM	79.5	> 100	> 100	> 100	9.31 µM	78.1 µM	7.87	> 100	7.68 µM	> 100 µM
O=S(=O)(NCCNc1nccc(-c2c(-c3cccc(O)c3)nc3sccn23)n1)c1ccc(F)cc1	3.51	36.1	10.2	25.7 µM	3.26 µM	27.1 µM	11.5 µM	57 µM			7.03	45	8.53 µM	34.5 µM			0.26 µM	10.3 µM
CCCNc1nc(N(C)O)nc(N(C)O)n1	1.8	> 100	3.04	> 100 µM	1.63 µM	> 53.8 µM	4.75 µM	> 100 µM	2.96	32.5	6.49	> 93.6	0.783 µM	9.23 µM	2.36	> 56.2	3.09 µM	> 56.9 µM
CCOc1ccc(Cc2nccc3cc(OCC)c(OCC)cc23)cc1OCC	5.7	27.8	5.53	21.3 µM	1.52 µM	13.4 µM	0.29 µM	8.94 µM	8.76	26	6	23.8	10.5 µM	23.6 µM	0.688	15.8	2.72 µM	16.5 µM
COc1cc2c(cc1OC)C(CCc1ccc(Cl)cc1)N(C)CC2 (centres undefined)	45.2	> 100	16.4	31.1 µM	13.8 µM	52.9 µM	13.6 µM	92.7 µM	21.6	46.5	58.6	> 100	33.3 µM	> 100 µM	9.32	27	20.1 µM	44.5 µM
COc1cc2c(cc1OCCCCNC(=O)c1cc3ccccc3[nH]1)N=CC1CCCN1C2=O (centres undefined)	28.3	> 100	16.6	45.1 µM	35.9 µM	> 100 µM	12.2 µM	75.4 µM	20	47.7	30.7	> 100	8.59 µM	> 100 µM	12.7	41.6	15.8 µM	40.7 µM
O=C1CCCCC/C=C2/CC[C@H](Sc3ccccc3)[C@@H]12		> 100				> 100 µM				> 100		> 100				> 100		> 100 µM
O=C(Nc1cccc(Cl)c1)Nc1cccc(Cl)c1							2.11 µM	> 100 µM	> 100	> 100	> 100	> 100	2.92 µM	> 100 µM	3.01	> 100	3.69 µM	> 100 µM
C=C1CC[C@@H]2C(C)(C)[C@@H](O)CC[C@@]2(C)[C@@H]1COc1ccc2ccc(=O)oc2c1	8.46	66.8	15.2	31.1 µM	11.1 µM	28 µM	8.62 µM	24.3 µM		31.2			13 µM	29.1 µM	10.5	22.9	10.2 µM	23.7 µM
CC(C)=CC/C=C(/C)[C@H]1CC[C@]2(C)[C@@H]1CC[C@@H]1[C@@]3(C)CCC(=O)NC(C)(C)[C@@H]3CC[C@]12C	30.2	> 100	20.2	35.8 µM	15 µM	34.5 µM	13.8 µM	28.2 µM	16	30.8	19.1	43.1	18.3 µM	34.1 µM	18.7	36.6	16.9 µM	43.5 µM
CN(C)CC(C(=O)c1ccccc1)c1ccccc1 (centres undefined)	6.76	20.6	4.86	16.4 µM	1.03 µM	2.2 µM	2.28 µM	9.54 µM	1.69	3.62	2.42	7.79	1.24 µM	2.5 µM	4.52	18.2	2.05 µM	7 µM
COC1=C(OC)C(=O)C(/C=C(\C)C(=O)O)=C(C)C1=O	> 100	> 100	> 100	> 100 µM	> 100 µM	> 100 µM	> 100 µM	> 100 µM	> 100	> 100			> 100 µM	> 100 µM	> 100	> 100	> 100 µM	> 100 µM
Fc1ccc(-c2nc(-c3nc4ccc(Cl)cc4[nH]3)cc3c2[nH]c2ccccc23)cc1	2.89	12.3	5.56	20.2 µM	3.29 µM	12.5 µM	1.56 µM	6.18 µM	4.54	17.3	3.34	15.5	2.74 µM	6.87 µM			2.28 µM	6.9 µM
Nc1nc(-c2ccccc2)c(-c2ccccc2)c(-c2nc(N)nc(-c3ccccc3)c2-c2ccccc2)n1		> 100		> 100 µM		> 100 µM		> 100 µM		> 100		> 100		> 100 µM		> 100		> 100 µM
CC1=C(N2CC2)C(=O)C(CO)=C(N2CC2)C1=O			0.111	0.511 µM and 0.29 µM	0.00728 µM	0.0392 µM and 0.336 µM	0.0183 µM and 0.018 µM	0.247 µM and 0.28 µM		0.116		0.166	0.0377 µM	0.557 µM and 0.0564 µM	0.0329	1.06		0.146 µM and 0.23 µM
Clc1ccc(-c2nc3c(-c4ccc(Cl)cc4)nc(-c4ccccc4)cn3c2-c2ccc(Cl)cc2)cc1	> 50	> 50	> 50	> 50 µM	> 50 µM	> 50 µM	14.9 µM	37.1 µM	> 50	> 50	> 50	> 50	> 50 µM	> 50 µM	12	> 50	26 µM	> 50 µM

Structure (SMILES)	GI50 [1] [µM]	TGI [1] [µM]	GI50 [2] [µM]	TGI [2]	GI50 [3]	TGI [3]	GI50 [4]	TGI [4]	GI50 [5] [µM]	TGI [5] [µM]	GI50 [6] [µM]	TGI [6] [µM]	GI50 [7]	TGI [7]	GI50 [8] [µM]	TGI [8] [µM]	GI50 [9]	TGI [9]
NC(=O)c1ccccc1NC(=O)C(=O)C(C(=O)c1ccc2ccccc2c1)C1OC(=O)c2ccccc21 (centres undefined)		50.5		20.1 µM		23 µM		32.3 µM		26.3		9.88		39.6 µM				22.5 µM
COc1cc(CNC(=O)/C=C/C=C/c2ccc3c(c2)OCO3)ccc1OCc1cn(-c2ccc(Cl)c(Cl)c2)nn1	0.999	4.18	2.1	4.74 µM	1.22 µM	2.84 µM	1.48 µM	3.39 µM	0.476	1.92	1.74	4.31	1.42 µM	2.81 µM	1.85	4.19	1.26 µM	2.65 µM
COc1ccc(Nc2c3ccccc3nc3c2c2ccccc2n3C)cc1	17.8	> 100			30 µM	> 100 µM					27.6	> 100	23.5 µM	> 100 µM	22.3	> 100	11.4 µM	41.5 µM
N#Cc1ccc(Oc2nccc(-c3c(-c4ccc(F)cc4)ncn3C3CCNCC3)n2)cc1	> 16.3	> 25	18.6	> 25 µM	5.45 µM	> 13.5 µM	4.04 µM	> 25 µM	> 16.6	> 25	> 25	> 25	> 25 µM	> 25 µM	16.6	> 25	> 25 µM	> 25 µM
c1cncc(CNc2ccccc2-c2nnc(Nc3ccc4c(c3)OCO4)o2)c1	0.0686	> 100	0.113		0.0516 µM	> 100 µM	0.0904 µM	28.9 µM	0.0744	> 100			0.0303 µM	0.0866 µM	0.0528	> 100	0.0542 µM	> 100 µM
COC(=O)/C(C#N)=C\N1CCN(C(=O)c2ccco2)C1=S	14.6	37.7			3.95 µM	16 µM	14 µM	43.1 µM	32.7	63.7			4.92 µM	33.6 µM	26	65.1	10.7 µM	27.2 µM
COc1cccc(Nc2nc(NNC(=O)Cc3ccccc3)nc(NNC(=O)c3ccncc3)n2)c1	> 100	> 100				> 100 µM			> 100	> 100		> 100		> 100 µM		> 100	36 µM	> 100 µM
CCN1CCC[C@H]1c1cc(O)c2c(c1OC)C[C@H]1C[C@H]3[C@H](N)C(=O)C(C(N)=O)=C(O)[C@@]3(O)C(=O)C1=C2O	0.207	8.72	0.118	3.01 µM	0.0456 µM	1.96 µM	0.0522 µM	3.52 µM	0.0423	0.689	0.216	3.96	0.13 µM	3.17 µM	0.208	3.8	0.0668 µM	1.3 µM
CC(=O)Nc1ccc2nncnc2c1		> 100				> 100 µM						> 100		> 100 µM		> 100		> 100 µM
Cc1ccc2nc3c(Cl)cc(=O)cc-3sc2c1		43				32.2 µM		36.7 µM		75.9		79.1		10.6 µM		63.2		31.8 µM
Nc1nc(N)c2cc(CNc3ccc(Cl)c(Cl)c3)ccc2n1	0.0631	1.34	0.64	2 µM	0.0839 µM	1.31 µM			1.21	2.77	1.58	3.21	1.1 µM	2.29 µM	0.419	1.69	0.468 µM	1.86 µM
COC(=O)[C@]12CC[C@@H](C)[C@H](C)[C@@H]1C1=CC[C@@H]3[C@@]4(C)C[C@@H](OC(=O)c5ccco5)[C@H](O)[C@@](C)(CO)[C@@H]4[C@H](O)C[C@@]3(C)[C@]1(C)CC2	2.44	7.05	1.95	3.73 µM	1.88 µM	3.41 µM	2.59 µM	6.19 µM	2.15	4.3	2.3	6.05	2.19 µM	4.73 µM	1.84	3.87		
Cn1cc(-c2csc(-c3c[nH]c4ncccc34)n2)c2cc(Br)cnc21			> 100	> 100 µM	2.91 µM	> 100 µM	5.03 µM	> 100 µM	3.01	> 100	1.97	> 100	2.91 µM	> 100 µM	3.01	18.8	3.47 µM	> 100 µM
N/C(=N\O)c1ncc(-c2ccc(C(F)(F)F)cc2)c(NC2CCCCCC2)n1	2.34	11.1	3.92	14.3 µM	3.95 µM and 1.41 µM	11.9 µM			3.81	13.9	4.24	26.8	8.8 µM and 3.74 µM	15.2 µM	2.55	12.5	9.12 µM and 2.65 µM	10.5 µM
CC1C2Cc3ccc(O)cc3C1(C)CCN2C (centres undefined)		> 100		> 100 µM		> 100 µM				> 100		> 100		> 100 µM		> 100		> 100 µM
